Where a SMILES comes first, the peptide text is derived from it. The star is where a group is joined. Palmitoyl = CCCCCCCCCCCCCCCC(=O)*
Columns and labels:
[1] = TEM imaging of PA nanostructures; assay type: physicochemical; conditions: ICG conjugated PA, 200 µM in ultrapure water, uranyl acetate negative stain
Procedure: For TEM imaging, PAs conjugated with ICG, Cy5 or MMAE were dissolved in ultrapure water at a concentration of 200 µM. Carbonfilm 200 copper mesh TEM grids were glow‐discharged first. Then, PA solutions (15 µL) were placed on the grids, incubated for 10 min before blotting, and air‐dried. 15 µL of ultrapure water was applied to wash the grid for 3 min. After incubation, the water was removed by blotting from the edge of the grid. For negative staining of the samples, a 0.4% uranyl acetate solution was prepared in ultrapure water and filtered using a 0.1 µm syringe filter. 15 µL of filtered uranyl acetate solution was applied to the grid and incubated for 5 min. Finally, TEM grids were blotted to remove excess stain and dried at room temperature. TEM imaging was performed using a Tecnai or Talos microscope (FEI).

[2] = ICG fluorescence in fractions of collected blood (plasma, WBC, RBC); assay type: in vivo; conditions: mouse blood 1 h after 50 nmol IV; average
Procedure: For these experiments, 100 µL of ICG conjugated SA‐E (0.5 mM) was intravenously injected into wild type (C57Bl/6J), ApoA1 ‐/‐, or LDL‐R ‐/‐ mice. One hour after injection blood was collected via cardiac puncture (500 µL) in EDTA containing tubes (BD MicroTainer Blood Collection Tube, 365974). To separate plasma, blood samples were centrifuged for 10 min at 1500 g, and supernatants were removed. Samples were centrifuged again for 10 min at 2500 g, and supernatants were stored at −20 °C for up to 5 days before use. For RBCs, 10 µL of the centrifugation pellet was separated and stored at −20 °C for up to 5 days before analysis. For WBCs, 100 µL of the remaining pellet was collected and combined with 2 mL Red Blood Cell Lysis Buffer (BioLegend, 420514). This mixture was allowed to incubate at room temperature for 15 min with occasional mixing. The solution was then centrifuged at 500 g for 5 min, the supernatant was removed, and the pellet was redissolved in 30 µL PBS, then stored at −20 °C for up to 5 days. […] For fluorescence measurements, 5 µL of samples were added to a 96 well plate, diluted to a total volume of 100 µL with PBS, and fluorescence was measured using a microplate reader (Tecan Spark 20 M).

[3] = Blood circulation in mice; assay type: in vivo, mouse; conditions: wild type mice, 50 nmol IV
Procedure: For blood circulation experiments, Balb/c mice were injected with 100 µL of ICG conjugated PAs or No‐SA, or free ICG (0.5 mM). Then, blood was drawn via the saphenous vein or retro‐orbitally at different time points (immediately after injection to 1 day). […] Blood from wild type mice was collected to prepare calibration curves for each probe. To each 18 µL aliquot of blood, 2 µL of probe stock solution (0.5 mM) was added and incubated at 37 °C for 1 h. The spiked samples were then serially diluted in blood between 50 and 0.1 µM. For fluorescence measurement, 2 µL of each diluted sample was further diluted into 98 µL of PBS, and ICG fluorescence was measured using a TECAN plate reader.

4T1 tumor [4] = test: Tumor accumulation, live IVIS imaging; assay type: in vivo, mouse
Procedure: (§1) For tumor accumulation studies in subcutaneous (HCT‐116, A375, TRAMP‐C2, MC38, LLC1, RG2, PDX cell lines, wild type or SR‐B1 ‐/‐ TRAMP‐C2, and wild type or LDL‐R ‐/‐ HeLa), intradermal (A375), or fat pad (4T1 and MCF‐7) tumors, cells were implanted as described above. When the tumors reached a size around ≈0.3–1 cm, mice were injected intravenously with 100 µL of ICG conjugated PAs (in PBS, 0.5 mM) or free ICG (in PBS, 0.5 mM). After probe injections, mice were imaged using the IVIS Spectrum (PerkinElmer) with excitation and emission wavelengths of 745 and 820 nm, respectively, at the specified time points. Living Image (PerkinElmer) software was used for all analyses. For MMTV mice experiments, mice were injected intravenously weekly with SA‐E (100 µL PBS, 0.5 mM) between 71 and 85 days of age and imaged 2 days later in the IVIS. […] SA‐E was injected intravenously (100 µL PBS, 0.5 mM), 2 days later the intestinal tissue was harvested, washed, and analyzed in the IVIS for ICG.

4T1 tumor [5] = test: Biodistribution in tumor‐bearing mice; assay type: in vivo, mouse; conditions: 4T1, 2 days after 50 nmol IV, tissue homogenates, plate reader, mean ± SEM
Procedure: For biodistribution studies in 4T1 and MC38 tumor models in wild type, ApoA1 ‐/‐, or LDL‐R ‐/‐ mice, 100 µL of ICG conjugated PAs or free ICG (0.5 mM) were intravenously injected. 2 days after injection, the mice were euthanized, and tumors and organs were excised and analyzed in the IVIS (PerkinElmer) for ICG.
To determine the percentage of the injected dose of SA‐E in tissues, 4T1 tumor, spleen, kidney, lung, and colon tissues were harvested from 5 mice 2 days after ICG conjugated SA‐E (IV, 100 µL, 0.5 mM). Organ weights were measured for normalization. Tissues were homogenized in gentleMACS M Tube containing 1 mL of PBS and equipped with a 600 µm mesh strainer using a gentleMACS dissociator as described above. The resulting tissue homogenates were transferred into a 96‐well plate for fluorescence measurement using a microplate reader (TECAN Spark 20 M). Additionally, organ tissues from healthy mice without probe injection were harvested and homogenized to prepare calibration curves. ICG conjugated SA‐E was spiked into tissue samples at different concentrations, and fluorescence intensities were measured using a microplate reader (TECAN Spark 20 M). For biodistribution studies with 10 mol% ICG containing micelles, ICG conjugated PAs were mixed with maleimide blocked PAs to achieve a final concentration of 0.25 mM ICG conjugated PAs and 2.5 mM total peptides. […]

Toxicity in mice = assay type: in vivo, mouse; conditions: wild type mice, 200 nmol IV, 5 mice
Procedure: Wild type mice were injected intravenously with ICG conjugated SA‐E at 4 times the dose used previously for imaging (100 µL, 2 mM). 1 day later, blood was removed via cardiac puncture, placed into an EDTA tube, and then centrifuged at 1500 g for 10 min, then 2500 g for 10 min to obtain plasma. The plasma was analyzed for Aspartate Aminotransferase activity (AST) (Abcam, AB105135) and creatinine (Crystal Chem, 80350) following the manufacturer's protocol. For complete blood counts, whole blood (10 µL) was mixed with 2 mM EDTA (10 µL) and analyzed using the HemaVet 950S (Drew Scientific).

HeLa tumors = test: Tumor accumulation in wild type or LDL‐R‐/‐ tumors; assay type: in vivo, mouse; conditions: 50 nmol IV, 2 days
Procedure: as §1

[6] = tested on: small intestinal adenomas and colon polyps; test: Detection of intestinal lesions in APC^min mice; assay type: in vivo, mouse
Procedure: as §1

[7] = tested on: LPs (HDL, LDL, VLDL) and albumin in pooled human plasma
Procedure: FPLC experiments were performed using SA‐E, SA‐K, or No‐SA conjugated with ICG or SA‐E conjugated with MMAE at a final concentration of 250 µM in filtered PBS (10 mM, pH 7.4) with or without human plasma or purified LPs or albumin. For analysis of SA‐E interactions with purified LPs, VLDL, LDL, HDL, and human serum albumin were diluted in filtered PBS to approximate concentrations found in 10% human plasma: 0.0025, 0.13, 0.05, and 5mg mL^−1, respectively. SA‐E was incubated with the purified LP/protein mixture for 30 min at 37 °C before injection. For analysis of plasma interactions, PAs or No‐SA were incubated in PBS containing 10% pooled human plasma for 30 min at 37 °C before injection. The total volume injected for all samples was 400 µL. All data was collected on an ÄKTA pure chromatography system using the following running conditions: size exclusion chromatography on a Superose 6 Increase 10/300 GL column with a column volume (CV) of 30 mL, pre‐column pressure limit of 5 MPa, delta‐column pressure limit of 2.6 MPa, flow rate of 0.75 mL min^−1, in 100% PBS. The sample running method included first an equilibration step before injection of the sample with 100% PBS for 0.5 CV, followed by sample application via 1 mL capillary loop in 100% PBS, and finished with a linear elution consisting of 2 CV collected in 1 mL fractions. The UV‐Vis detector wavelengths were 250, 280, and 700 nm to detect MMAE, all proteins/LPs, and ICG, respectively.

[8] = 4T1 tumor‐bearing mice, 50 nmol IV

CCCCCCCCCCCCCCCC(=O)NCC(=O)NCC(=O)NCC(=O)N[C@@H](Cc1c[nH]cn1)C(=O)N[C@@H](C)C(=O)N[C@@H](C)C(=O)N[C@@H](CC(N)=O)C(=O)NCC(=O)N[C@@H](CCC(=O)O)C(=O)N[C@@H](CCC(=O)O)C(=O)N[C@@H](CS)C(=O)N[C@@H](CCC(=O)O)C(=O)O [SA‐E] (Palmitoyl-GGGHAANGEECE-OH)
size of spherical micelles (TEM) [1]: 5–10 nm
share of fluorescence in blood plasma [2]: 98.9%
AUC of blood circulation plot relative to SA‐K [3]: 2.1 fold
day of 50% decrease in the tumor signal (4T1 tumor [4]; [8]): 3 days
retention of tumor signal (4T1 tumor [4]; [8]): still detectable levels even 2 weeks after injection
time at which background signal was mostly cleared (4T1 tumor [4]; [8]): 2 days
total tumor accumulation relative to No‐SA (4T1 tumor [4]; [8]): ≈ 1.6 fold
time of maximum tumor fluorescence (4T1 tumor [4]; 4T1 tumor‐bearing mice, ICG conjugated, 50 nmol IV): 11 h
retention in the tumor (4T1 tumor [4]; biodistribution studies, summary in introduction): more than 2 weeks
maximum TBR (4T1 tumor [4]; days 2 to 8, 50 nmol IV): 5–6
concentration in the tumor (4T1 tumor [5]; 5 mice): 1.9% ± 0.4 %ID / g tissue
concentration in liver (4T1 tumor [5]): 0.8% ± 0.1 %ID / g tissue
Aspartate transferase (AST) versus control (Toxicity in mice; 1 day): no difference
Creatinine versus control (Toxicity in mice; 1 day): no difference
complete blood counts (CBC) versus control (Toxicity in mice; blood 1 day after injection): no difference
tumor accumulation, LDL‐R knockout versus wild type tumors (HeLa tumors): not needed for tumor accumulation
colon polyps detected ([6]; 3 APC^min mice): 4/4
small intestinal adenomas detected ([6]; 3 APC^min mice): 71/71
Colon, SA-E Negative lesions ([6]; mouse 1, of 2 lesions): 0
Colon, SA-E Positive lesions ([6]; mouse 1, of 2 lesions): 2
Small Intestine, SA-E Negative lesions ([6]; mouse 1, of 15 lesions): 0
Small Intestine, SA-E Positive lesions ([6]; mouse 1, of 15 lesions): 15
Colon, SA-E Negative lesions ([6]; mouse 2, of 1 lesion): 0
Colon, SA-E Positive lesions ([6]; mouse 2, of 1 lesion): 1
Small Intestine, SA-E Negative lesions ([6]; mouse 2, of 22 lesions): 0
Small Intestine, SA-E Positive lesions ([6]; mouse 2, of 22 lesions): 22
Colon, SA-E Negative lesions ([6]; mouse 3, of 1 lesion): 0
Colon, SA-E Positive lesions ([6]; mouse 3, of 1 lesion): 1
Small Intestine, SA-E Negative lesions ([6]; mouse 3, of 34 lesions): 0
Small Intestine, SA-E Positive lesions ([6]; mouse 3, of 34 lesions): 34
amount bound to albumin, lower than bound to HDL [7]: approximately two‐fold

Reference: publication PMC12801355, “Peptide Amphiphiles Hitchhike on Endogenous Biomolecules for Enhanced Cancer Imaging and Therapy” (Advanced Materials (Deerfield Beach, Fla.), 2025)
